target: Beta-secretase 1 (Homo sapiens, UniProt P56817); experiment: Inhibition of BACE1
Sequence (P56817 whole entry): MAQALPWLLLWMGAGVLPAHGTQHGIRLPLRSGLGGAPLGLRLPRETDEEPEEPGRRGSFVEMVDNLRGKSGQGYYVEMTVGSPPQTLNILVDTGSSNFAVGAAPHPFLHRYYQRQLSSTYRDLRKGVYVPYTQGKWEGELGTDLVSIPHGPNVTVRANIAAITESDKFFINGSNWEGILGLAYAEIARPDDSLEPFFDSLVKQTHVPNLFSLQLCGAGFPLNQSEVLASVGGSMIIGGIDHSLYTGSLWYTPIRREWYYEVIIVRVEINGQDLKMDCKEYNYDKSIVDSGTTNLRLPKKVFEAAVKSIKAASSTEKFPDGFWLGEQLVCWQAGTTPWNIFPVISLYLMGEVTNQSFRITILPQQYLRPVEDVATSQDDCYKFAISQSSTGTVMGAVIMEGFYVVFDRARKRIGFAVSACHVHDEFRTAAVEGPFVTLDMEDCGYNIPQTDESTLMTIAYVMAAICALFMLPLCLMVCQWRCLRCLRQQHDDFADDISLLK

Row | Compound | Ki | IC50
1 | CSCC[C@H](NC(=O)[C@@H](NC(=O)OC(C)(C)C)C(C)C)C(=O)N[C@@H](CC(C)C)[C@@H](O)C[C@@H](C)C(=O)N[C@H](C(=O)NCc1ccccc1)C(C)C | 5810 nM | –
2 | CC(=O)c1ccccc1-c1cc(C(=O)N[C@@H](Cc2ccccc2)[C@H](O)CNC2CC2)cc(C(=O)N[C@H](C)c2ccccc2)c1 | – | 317 nM
3 | C=CCNC[C@@H](O)[C@H](Cc1ccccc1)NC(=O)c1cc(C(=O)N[C@H](C)c2ccccc2)cc(-c2ccccc2C(C)=O)c1 | – | 223 nM
4 | CC(=O)c1ccccc1-c1cc(C(=O)N[C@@H](Cc2ccccc2)[C@H](O)CNCc2ccccc2)cc(C(=O)N[C@H](C)c2ccccc2)c1 | – | 115 nM
5 | CC(=O)c1ccccc1-c1cc(C(=O)N[C@@H](Cc2ccccc2)[C@H](O)CNc2ccccc2)cc(C(=O)N[C@H](C)c2ccccc2)c1 | – | 110 nM
6 | CC(=O)c1ccccc1-c1cc(C(=O)N[C@H](CO)Cc2ccccc2)cc(C(=O)N[C@H](C)c2ccccc2)c1 | – | 9900 nM
7 | CC(=O)c1ccccc1-c1cc(C(=O)N[C@@H](Cc2ccccc2)[C@H](O)CNC2CCC2)cc(C(=O)N[C@H](C)c2ccccc2)c1 | – | 1400 nM
8 | CC(=O)c1ccccc1-c1cc(C(=O)N[C@@H](Cc2ccccc2)[C@H](O)CN(C)Cc2ccccc2)cc(C(=O)N[C@H](C)c2ccccc2)c1 | – | > 10000 nM
9 | CC(=O)c1ccccc1-c1cc(C(=O)N[C@@H](Cc2ccccc2)[C@H](O)CNC(C)C)cc(C(=O)N[C@H](C)c2ccccc2)c1 | – | 674 nM

Continued, values first:

Row | Ki | IC50 | Compound
10 | 8 nM | – | CC(C)C[C@H](NC(=O)[C@H](CS(C)(=O)=O)NC(=O)[C@@H](NC(=O)OC(C)(C)C)C(C)C)[C@@H](O)C[C@@H](C)C(=O)N[C@H](C(=O)NCc1ccccc1)C(C)C
11 | – | 348 nM | CC(=O)c1ccccc1-c1cc(C(=O)N[C@@H](Cc2ccccc2)[C@H](O)CN[C@H](C)c2ccccc2)cc(C(=O)N[C@H](C)c2ccccc2)c1
12 | – | 115 nM | CC(=O)c1ccccc1-c1cc(C(=O)N[C@@H](Cc2ccccc2)[C@H](O)CN[C@@H](C)c2ccccc2)cc(C(=O)N[C@H](C)c2ccccc2)c1
13 | 0.3 nM | – | H-ELDLAVEF-OH
14 | – | > 10000 nM | CC(=O)c1ccccc1-c1cc(C(=O)N[C@@H](Cc2ccccc2)[C@H](O)CN2CCC2)cc(C(=O)N[C@H](C)c2ccccc2)c1
15 | – | 418 nM | CC(=O)c1ccccc1-c1cc(C(=O)N[C@@H](Cc2ccccc2)[C@H](O)CNCC2CC2)cc(C(=O)N[C@H](C)c2ccccc2)c1

From ChEMBL document CHEMBL1140597, “Evaluating scoring functions for docking and designing beta-secretase inhibitors” (Bioorg Med Chem Lett, 2007)
